These compounds were tested against Human TRPA1 (Homo sapiens (Human), UniProt O75762) (assay: FLIPR based intracellular Ca2+ assay and membrane potential assay, AITC-activated TRPA1). Conditions: hTRPA1 transiently expressed in HEK293-F cells, AITC as agonist.
Human TRPA1, sequence (O75762 whole entry): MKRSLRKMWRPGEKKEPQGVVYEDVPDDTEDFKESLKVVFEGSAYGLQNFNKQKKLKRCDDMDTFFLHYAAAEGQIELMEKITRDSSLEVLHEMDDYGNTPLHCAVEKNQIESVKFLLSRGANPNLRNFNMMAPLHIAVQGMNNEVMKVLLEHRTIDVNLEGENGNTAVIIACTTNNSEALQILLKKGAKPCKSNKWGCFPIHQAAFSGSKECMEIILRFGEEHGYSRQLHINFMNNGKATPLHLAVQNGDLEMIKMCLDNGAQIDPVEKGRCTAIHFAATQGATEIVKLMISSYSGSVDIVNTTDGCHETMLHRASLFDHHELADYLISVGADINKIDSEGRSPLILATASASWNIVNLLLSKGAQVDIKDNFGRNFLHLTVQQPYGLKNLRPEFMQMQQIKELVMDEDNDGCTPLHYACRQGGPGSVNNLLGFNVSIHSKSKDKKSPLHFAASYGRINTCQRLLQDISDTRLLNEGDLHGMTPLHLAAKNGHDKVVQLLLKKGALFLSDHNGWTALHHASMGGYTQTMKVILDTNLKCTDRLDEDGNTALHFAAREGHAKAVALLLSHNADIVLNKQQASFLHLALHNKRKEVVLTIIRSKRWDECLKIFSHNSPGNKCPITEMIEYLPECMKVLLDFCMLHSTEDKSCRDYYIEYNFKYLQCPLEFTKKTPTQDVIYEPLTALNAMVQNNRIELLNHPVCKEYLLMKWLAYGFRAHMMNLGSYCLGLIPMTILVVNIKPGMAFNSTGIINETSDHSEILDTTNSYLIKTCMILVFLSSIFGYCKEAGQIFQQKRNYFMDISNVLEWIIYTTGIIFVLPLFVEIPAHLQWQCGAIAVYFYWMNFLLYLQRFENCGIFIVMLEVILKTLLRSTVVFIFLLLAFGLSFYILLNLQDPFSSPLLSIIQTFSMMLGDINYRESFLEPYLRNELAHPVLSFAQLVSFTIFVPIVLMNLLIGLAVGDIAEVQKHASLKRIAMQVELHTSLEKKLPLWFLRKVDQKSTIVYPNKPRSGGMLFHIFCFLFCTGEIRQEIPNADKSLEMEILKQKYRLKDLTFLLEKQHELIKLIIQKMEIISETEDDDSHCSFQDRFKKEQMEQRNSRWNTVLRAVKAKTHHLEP
Type: cell-based
Experimental: Molecular biology and transient expression were performed as described in Chen, J. et al., Journal of Biomolecular Screening 2007, 12, 61-69. Briefly, TRPA1 full length cDNA was amplified from human dorsal root ganglia total RNA (BD Bioscience Clontech, Palo Alto, Calif., USA) and was cloned into pcDNA3.1/V5-His Topo vector (Invitrogen, Carlsbad, Calif.). Large scale transient transfection was performed using the FreeStyle™ 293 Expression System as recommended by the manufacturer (Invitrogen). HEK293-F cells were grown in suspension in flasks (cell volume 30 ml, to 1 liter) or in a Wave Bioreactor (Wave Biotech, Somerset, N.J. (6 liters). To support high density, suspension culture and transfection, cells were cultured in Free Style 293 media, an optimized, serum free formulation. 293fectin™ (Invitrogen) was used as transfection reagent. In a transfection of 3×10^7 cells (30 mL volume), 30 μg of plasmid DNA and 40 μL 293 fectin were used. For a larger volume transfection, each reagent was scaled up proportionally. Two days post-transfection, cells were harvested by centrifugation (1000×g, 5 minutes) and resuspended to a density of 1.5×10^7 cells/mL in freezing medium (Freestyle media/10% serum/10% DMSO). Cells were transferred into cryovials in 2 mL aliquots, and these vials were placed in Nalgene Mr. Frosty slow-freeze devices (Sigma-Aldrich, St. Louis, Mo.) at −80° C. As needed, vials were removed from −80° C. and quickly thawed in a 37° C. water bath. Cells were aseptically transferred into conical tubes containing Freestyle media (10 mL/vial). After centrifugation at 1,000×g for 3-5 minutes, medium was removed by aspiration and cells were resuspended in Freestyle medium at desired densities (typically 1×10^6 cells/mL). Re-suspended cells were seeded into black-walled clear-bottom 96-well Biocoat™ poly-D-lysine assay plated (BD Biosciences, Bedford, Mass.) (10^5 cells/well) and incubated overnight at 37° C. under a humidified 5% CO2 atmosphere.
Ca^2+ influx was measured using a FLIPR calcium assay kit (R8033; Molecular Devices, Sunnyvale, Calif.). The Ca^2+ indicator dye was dissolved in Hanks' balanced salt solution supplemented with 20 mM HEPES buffer (HBSS/HEPES) according to the manufacturer instructions. Prior to start of the assay, the medium was removed by aspiration, and cells were loaded with 100 μL Ca^2+ dye for 2 to 3 hours at room temperature. AITC (allyl isothiocyanate) was used to activate and open the channels. (4×) solutions of the test compounds were prepared in HBSS/HEPES, and 50 μL were added to the cells at a delivery rate of 10 μL/sec. Changes in fluorescene were measured over time in a fluorometric imaging plate reader (FLIPR), Molecular Devices). Two additions were made over the course of an experimental run. For agonist experiments, assay buffer was added at the 10 s time point, followed by addition of agonist at the 3 minute 10 sec time point. For antagonist experiments, the antagonist was added at the 10 sec time point, followed by addition of the agonist 3 minutes later. Final assay volume for both the agonist and antagonist experiments was 200 μL. Total length of an experimental run was 6.5 minutes.
Data was analyzed with GraphPad Prism® software (GraphPad Software, San Diego, Calif.), using a four-parameter logistic Hill equation to curve-fit concentration-effect data and derive EC50 or IC50 values. Numerical values are reported as mean±SEM (n=number of experiments). SEM is calculated by dividing the standard deviation by the square root of the sample size […].
Changes in membrane potential were measured in hTRPA1-expressing LSTT cells using a FLIJPR membrane potential assay kit (R8034, Molecular Devices). The procedure for thawing and plating the LSTT cells was identical to the Ca^2+ influx assay (see above). […]
`CCC(=N\O)/C(C)=C/c1ccc(F)nc1` [Example 1, (1E,3E)-1-(6-fluoropyridin-3-yl)-2-methylpent-1-en-3-one oxime] gave an IC50 of 1.25 µM.
For `CCC(=N\O)/C(C)=C/c1cccs1` [Example 2, (1E,3E)-2-methyl-1-thien-2-ylpent-1-en-3-one oxime], the IC50 was 11 µM.
Work on `CCC(=N\O)/C(C)=C/c1ccc(OC)nc1` [Example 3, (1E,3E)-1-(6-methoxypyridin-3-yl)-2-methylpent-1-en-3-one oxime] yielded an IC50 of 23.4 µM.
Compound `CCC(=N\O)/C(C)=C/c1ccsc1` [Example 4, (1E,3E)-2-methyl-1-thien-3-ylpent-1-en-3-one oxime] has an IC50 of 1.32 µM.
Work on `CCC(=N\O)/C(C)=C/c1cccnc1` [Example 5, (1E,3E)-2-methyl-1-pyridin-3-ylpent-1-en-3-one oxime] yielded an IC50 of 17 µM.
Compound `CCC(=N\O)/C(C)=C/c1ccncc1` [Example 6, (1E,3E)-2-methyl-1-pyridin-4-ylpent-1-en-3-one oxime] has an IC50 of 8.61 µM.
In the case of `CCC(=N\O)/C(C)=C/c1ccc(C)nc1` [Example 7, (1E,3E)-2-methyl-1-(6-methylpyridin-3-yl)pent-1-en-3-one oxime], the IC50 is reported as over 100 µM.
Compound `CCC(=N\O)/C(C)=C/c1cnc2ccccc2c1` [Example 8, (1E,3E)-2-methyl-1-quinolin-3-ylpent-1-en-3-one oxime] has an IC50 of over 100 µM.
`CCC(=N\O)/C(C)=C/c1cnccc1C` [Example 9, (1E,3E)-2-methyl-1-(4-methylpyridin-3-yl)pent-1-en-3-one oxime] showed an IC50 of over 100 µM.
`CCC(=N\O)/C(C)=C/c1ccc(C(F)(F)F)nc1` [Example 10, (1E,3E)-2-methyl-1-[6-(trifluoromethyl)pyridin-3-yl]pent-1-en-3-one oxime] showed an IC50 of over 100 µM.
Work on `CCC(=N\O)/C(C)=C/c1cncc2ccccc12` [Example 11, (1E,3E)-1-(isoquinolin-4-yl)-2-methylpent-1-en-3-one oxime] yielded an IC50 of over 100 µM.

Source: patent publication US9751850B2, “TRPA1 antagonists” (AbbVie Inc., priority 2008, dated 2017)
